In this assay the target is Recombinant human ULK1 (1-649) (Homo sapiens (Human), UniProt O75385). In words: ULK1 ADP Glo kinase activity assay, new method (ULKtide peptide substrate). Particulars: 25° C., 40 minutes, read-out: ULK1 biochemical IC50. As to the method: Recombinant human ULK1 (1-649) protein expressed in Sf9 insect cells was obtained from SignalChem (Vancouver, BC), catalog #U01-11G. Active kinase was purified via N-terminal GST tag to >85% purity.
ADP GLO Kinase Assay Reagents were obtained from Promega Corp (Madison, WI), catalog #V9104.
Synthetic peptide substrate (ULKtide) with the amino acid sequence YANWLAASIYLDGKKK was obtained from ThermoFisher Scientific USA.
ULK1 inhibitor potency was determined using the luminescent ADP Glo Kinase Assay (Promega), a universal ADP detection system that measures kinase activity by quantifying the amount of ADP produced during a kinase reaction. ULK1 kinase reactions are performed in a standard 96-well microplate (20 μL reaction volume) at 25° C. for 40 minutes in the presence or absence of the test compound (12-point dilution series starting at 10 μM). Addition of peptide substrate and ATP initiates the kinase reaction.
The standard ADP Glo assay is performed in two steps. In step one, following the kinase reaction, an equal volume of ADP-Glo™ Reagent (20 μL) is added to terminate the kinase reaction and deplete the remaining ATP. In the second step, the Kinase Detection Reagent (10 μL) is added to simultaneously convert ADP to ATP and allow the newly synthesized ATP to be measured using a luciferase/luciferin reaction. Step two of the ADP Glo assay is performed in a white 384-well plate (20 μL final volume). Thirty minutes after the addition of the Detection reagent, light generated from the luciferase reaction is measured (1 second exposure) using a microplate compatible luminometer (CLARIOstar, BMG Labtech).
Inhibition of ULK1 kinase activity is determined for each test compound by comparison to DMSO only control wells. Inhibitor IC50 was calculated by plotting the change in luminescence after 30 minutes (response) versus inhibitor concentration (in log molar) then applying the four-parameter variable slope curve fit (GraphPad Prism). Inhibition of ULK1 in biochemical assay is found in Table 4.

The values below come from patent US20250144094A1 (Erasca, Inc., priority 2021, published 2025).

As a reminder, the IC50 is the concentration at which inhibition is half-maximal.

Molecules are shown by their SMILES.

Chain of Recombinant human ULK1 (1-649) (O75385 1-649): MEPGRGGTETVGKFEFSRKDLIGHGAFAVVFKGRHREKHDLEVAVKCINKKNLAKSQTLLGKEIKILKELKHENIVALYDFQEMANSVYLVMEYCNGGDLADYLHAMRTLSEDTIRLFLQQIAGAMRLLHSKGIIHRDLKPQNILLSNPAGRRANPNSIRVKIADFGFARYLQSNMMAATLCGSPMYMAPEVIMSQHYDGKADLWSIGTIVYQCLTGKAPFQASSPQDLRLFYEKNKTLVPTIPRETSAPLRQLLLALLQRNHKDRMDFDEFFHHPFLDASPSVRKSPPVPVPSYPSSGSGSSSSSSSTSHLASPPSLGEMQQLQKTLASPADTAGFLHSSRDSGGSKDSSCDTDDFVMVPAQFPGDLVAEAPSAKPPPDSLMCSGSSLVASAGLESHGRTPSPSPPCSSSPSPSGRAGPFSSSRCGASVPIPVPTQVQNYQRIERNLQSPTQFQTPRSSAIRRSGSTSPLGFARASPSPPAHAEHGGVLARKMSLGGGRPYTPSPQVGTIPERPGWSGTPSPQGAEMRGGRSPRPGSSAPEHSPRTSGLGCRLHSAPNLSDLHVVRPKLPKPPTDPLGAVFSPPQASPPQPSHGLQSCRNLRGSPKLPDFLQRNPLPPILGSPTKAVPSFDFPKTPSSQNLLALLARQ

With `C[C@@H]1CN(c2ccc(Nc3ncc(C(F)(F)F)c(-c4cc5c(s4)C(=O)N(C4COC4)CCS5(=O)=O)n3)c(C3CC3)n2)CCN1C` [Example 376, (R)-7-(2-((2-cyclopropyl-6-(3,4-dimethylpiperazin-1-yl)pyridin-3-yl)amino)-5-(trifluoromethyl)pyrimidin-4-yl)-4-(oxetan-3-yl)-3,4-dihydrothieno[2,3-f][1,4]thiazepin-5(2H)-one 1,1-dioxide], the IC50 is at most 5 nM. For `CCN1CCS(=O)(=O)c2cc(-c3nc(Nc4cc5c(cc4C4CC4)CNCC5)ncc3C(F)(F)F)sc2C1=O` [Example 198, 7-(2-((7-cyclopropyl-1,2,3,4-tetrahydroisoquinolin-6-yl)amino)-5-(trifluoromethyl)pyrimidin-4-yl)-4-ethyl-3,4-dihydrothieno[2,3-f][1,4]thiazepin-5(2H)-one 1,1-dioxide], the IC50 is at most 5 nM. In the case of `O=C1c2sc(-c3nc(Nc4cc5c(cc4Cl)CCNC5)ncc3C(F)(F)F)cc2S(=O)(=O)CCN1C1CC1` [Example 201, 7-(2-((6-chloro-1,2,3,4-tetrahydroisoquinolin-7-yl)amino)-5-(trifluoromethyl)pyrimidin-4-yl)-4-cyclopropyl-3,4-dihydrothieno[2,3-f][1,4]thiazepin-5(2H)-one 1,1-dioxide], the concentration for half-maximal inhibition (IC50) was at most 5 nM. For the molecule `NC(=O)[C@@H]1CN(c2ccc(Nc3ncc(C(F)(F)F)c(-c4cc5c(s4)C(=O)N(C4COC4)CCS5(=O)=O)n3)c(C3CC3)c2)CCN1` [Example 371, (S)-4-(3-cyclopropyl-4-((4-(4-(oxetan-3-yl)-1,1-dioxido-5-oxo-2,3,4,5-tetrahydrothieno[2,3-f][1,4]thiazepin-7-yl)-5-(trifluoromethyl)pyrimidin-2-yl)amino)phenyl)piperazine-2-carboxamide], the IC50 was at most 5 nM. Regarding `CCc1cc(N2C[C@H]3C[C@@H]2CN3C)ccc1Nc1ncc(C(F)(F)F)c(-c2cc3c(s2)C(=O)N(C2CC2)CCS3(=O)=O)n1` [Example 323, 4-cyclopropyl-7-(2-((2-ethyl-4-((1R,4R)-5-methyl-2,5-diazabicyclo[2.2.1]heptan-2-yl)phenyl)amino)-5-(trifluoromethyl)pyrimidin-4-yl)-3,4-dihydrothieno[2,3-f][1,4]thiazepin-5(2H)-one 1,1-dioxide], the half-maximal inhibitory concentration (IC50) was at most 5 nM. For the molecule `Cc1ccc(C2CNC2)cc1Nc1ncc(C(F)(F)F)c(-c2cc(S(C)(=O)=O)cs2)n1` [Example 136, N-(5-(azetidin-3-yl)-2-methylphenyl)-4-(4-(methylsulfonyl)thiophen-2-yl)-5-(trifluoromethyl)pyrimidin-2-amine], the IC50 was in the range of 50 to 100 nM. As to `CCc1cc(N2C[C@@H](C)N(C)[C@@H](C)C2)ccc1Nc1ncc(C(F)(F)F)c(-c2cc3c(s2)C(=O)N(C2COC2)CCS3(=O)=O)n1` [Example 369, 7-(2-((2-ethyl-4-((3S,5R)-3,4,5-trimethylpiperazin-1-yl)phenyl)amino)-5-(trifluoromethyl)pyrimidin-4-yl)-4-(oxetan-3-yl)-3,4-dihydrothieno[2,3-f][1,4]thiazepin-5(2H)-one 1,1-dioxide], the IC50 was at most 5 nM. In the case of `CCc1cc(N2CCNCC2)ccc1Nc1ncc(C(F)(F)F)c(-c2cc3c(s2)C(=O)N(C2CC2)CCS3(=O)=O)n1` [Example 264, 4-cyclopropyl-7-(2-((2-ethyl-4-(piperazin-1-yl)phenyl)amino)-5-(trifluoromethyl)pyrimidin-4-yl)-3,4-dihydrothieno[2,3-f][1,4]thiazepin-5(2H)-one 1,1-dioxide], the half-inhibitory concentration (IC50) was at most 5 nM.

Turning to `CCc1cc(N2C[C@@H](C)N[C@@H](C)C2)ccc1Nc1ncc(C(F)(F)F)c(-c2cc3c(s2)C(=O)N(C2CC2)CCS3(=O)=O)n1` [Example 366, 4-cyclopropyl-7-(2-((4-((3S,5R)-3,5-dimethylpiperazin-1-yl)-2-ethylphenyl)amino)-5-(trifluoromethyl)pyrimidin-4-yl)-3,4-dihydrothieno[2,3-f][1,4]thiazepin-5(2H)-one 1,1-dioxide], the half-inhibitory concentration (IC50) was at most 5 nM. The value for `CN1CCS(=O)(=O)c2cc(-c3nc(Nc4cnc(N5CC6CC(C5)N6)cc4C4CC4)ncc3C(F)(F)F)sc2C1=O` [Example 383, 7-(2-((6-(3,6-diazabicyclo[3.1.1]heptan-3-yl)-4-cyclopropylpyridin-3-yl)amino)-5-(trifluoromethyl)pyrimidin-4-yl)-4-methyl-3,4-dihydrothieno[2,3-f][1,4]thiazepin-5(2H)-one 1,1-dioxide] was at most 5 nM.

With `CCc1cc(N2C[C@@H]3C[C@H]2CN3C)ccc1Nc1ncc(C(F)(F)F)c(-c2cc3c(s2)C(=O)N(C2CC2)CCS3(=O)=O)n1` [Example 321, 4-cyclopropyl-7-(2-((2-ethyl-4-((1S,4S)-5-methyl-2,5-diazabicyclo[2.2.1]heptan-2-yl)phenyl)amino)-5-(trifluoromethyl)pyrimidin-4-yl)-3,4-dihydrothieno[2,3-f][1,4]thiazepin-5(2H)-one 1,1-dioxide], the IC50 is at most 5 nM.

Consider `CC(C)(F)CN1CCc2cc(Nc3ncc(C(F)(F)F)c(-c4cc5c(s4)C(=O)N(C4COC4)CCS5(=O)=O)n3)c(C3CC3)cc2C1` [Example 300, 7-(2-((7-cyclopropyl-2-(2-fluoro-2-methylpropyl)-1,2,3,4-tetrahydroisoquinolin-6-yl)amino)-5-(trifluoromethyl)pyrimidin-4-yl)-4-(oxetan-3-yl)-3,4-dihydrothieno[2,3-f][1,4]thiazepin-5(2H)-one 1,1-dioxide], for which the IC50 was in the range of 10 to 50 nM.

As to `O=C1c2sc(-c3nc(Nc4cc5c(cc4Cl)CNCC5)ncc3C(F)(F)F)cc2S(=O)(=O)CCN1C1COC1` [Example 210, 7-(2-((7-chloro-1,2,3,4-tetrahydroisoquinolin-6-yl)amino)-5-(trifluoromethyl)pyrimidin-4-yl)-4-(oxetan-3-yl)-3,4-dihydrothieno[2,3-f][1,4]thiazepin-5(2H)-one 1,1-dioxide], the IC50 was at most 5 nM. Turning to `CCc1cc2c(cc1Nc1ncc(C(F)(F)F)c(-c3cc4c(s3)C(=O)N(C)CCS4(=O)=O)n1)CCN(C)C2` [Example 148, 7-(2-((7-ethyl-2-methyl-1,2,3,4-tetrahydroisoquinolin-6-yl)amino)-5-(trifluoromethyl)pyrimidin-4-yl)-4-methyl-3,4-dihydrothieno[2,3-f][1,4]thiazepin-5(2H)-one 1,1-dioxide], the IC50 is at most 5 nM. The value for `CCc1cc(N2CCN(C(C)C)CC2)ccc1Nc1ncc(C(F)(F)F)c(-c2cc3c(s2)C(=O)N(C2CC2)CCS3(=O)=O)n1` [Example 272, 4-cyclopropyl-7-(2-((2-ethyl-4-(4-isopropylpiperazin-1-yl)phenyl)amino)-5-(trifluoromethyl)pyrimidin-4-yl)-3,4-dihydrothieno[2,3-f][1,4]thiazepin-5(2H)-one 1,1-dioxide] was at most 5 nM; that for `O=C1c2sc(-c3nc(Nc4cc5c(cc4Cl)CCNC5)ncc3C(F)(F)F)cc2S(=O)(=O)CCN1C1CCC1` [Example 202, 7-(2-((6-chloro-1,2,3,4-tetrahydroisoquinolin-7-yl)amino)-5-(trifluoromethyl)pyrimidin-4-yl)-4-cyclobutyl-3,4-dihydrothieno[2,3-f][1,4]thiazepin-5(2H)-one 1,1-dioxide] was at most 5 nM. The value for `CCc1cc2c(cc1Nc1ncc(C(F)(F)F)c(-c3cc4c(s3)C(=O)N(C)CCS4(=O)=O)n1)CCN(CC)C2` [Example 222, 7-(2-((2,7-diethyl-1,2,3,4-tetrahydroisoquinolin-6-yl)amino)-5-(trifluoromethyl)pyrimidin-4-yl)-4-methyl-3,4-dihydrothieno[2,3-f][1,4]thiazepin-5(2H)-one 1,1-dioxide] was at most 5 nM.

Regarding `O=C1c2sc(-c3nc(Nc4cc5c(cc4C4CC4)CN(C4CC4)CC5)ncc3C(F)(F)F)cc2S(=O)(=O)CCN1C1CC1` [Example 293, 4-Cyclopropyl-7-(2-((2,7-dicyclopropyl-1,2,3,4-tetrahydroisoquinolin-6-yl)amino)-5-(trifluoromethyl)pyrimidin-4-yl)-3,4-dihydrothieno[2,3-f][1,4]thiazepin-5(2H)-one 1,1-dioxide], the IC50 was 5 to 10 nM. On to `CN1CCc2cc(Nc3ncc(C(F)(F)F)c(-c4cc5c(s4)C(=O)N(C4CCC4)CCS5(=O)=O)n3)c(Cl)cc2C1` [Example 168, 7-(2-((7-chloro-2-methyl-1,2,3,4-tetrahydroisoquinolin-6-yl)amino)-5-(trifluoromethyl)pyrimidin-4-yl)-4-cyclobutyl-3,4-dihydrothieno[2,3-f][1,4]thiazepin-5(2H)-one 1,1-dioxide], for which the IC50 was at most 5 nM. Regarding `CCc1cc(N2C[C@H]3C[C@@H]2CN3)ccc1Nc1ncc(C(F)(F)F)c(-c2cc3c(s2)C(=O)N(C2CC2)CCS3(=O)=O)n1` [Example 322, 7-(2-((4-((1R,4R)-2,5-diazabicyclo[2.2.1]heptan-2-yl)-2-ethylphenyl)amino)-5-(trifluoromethyl)pyrimidin-4-yl)-4-cyclopropyl-3,4-dihydrothieno[2,3-f][1,4]thiazepin-5(2H)-one 1,1-dioxide], the IC50 is at most 5 nM.
